Experimental findings from patent US20140023611A1 (priority 2010, published 2014) are described below.

pIC50: −log10 of the molar value.

This experiment addresses T1, rat NaP2b (SLC34A2) (Rattus norvegicus, UniProt Q9JJ09).
T1 construct: host or cells: HEK293
T1 sequence (Q9JJ09 1-695): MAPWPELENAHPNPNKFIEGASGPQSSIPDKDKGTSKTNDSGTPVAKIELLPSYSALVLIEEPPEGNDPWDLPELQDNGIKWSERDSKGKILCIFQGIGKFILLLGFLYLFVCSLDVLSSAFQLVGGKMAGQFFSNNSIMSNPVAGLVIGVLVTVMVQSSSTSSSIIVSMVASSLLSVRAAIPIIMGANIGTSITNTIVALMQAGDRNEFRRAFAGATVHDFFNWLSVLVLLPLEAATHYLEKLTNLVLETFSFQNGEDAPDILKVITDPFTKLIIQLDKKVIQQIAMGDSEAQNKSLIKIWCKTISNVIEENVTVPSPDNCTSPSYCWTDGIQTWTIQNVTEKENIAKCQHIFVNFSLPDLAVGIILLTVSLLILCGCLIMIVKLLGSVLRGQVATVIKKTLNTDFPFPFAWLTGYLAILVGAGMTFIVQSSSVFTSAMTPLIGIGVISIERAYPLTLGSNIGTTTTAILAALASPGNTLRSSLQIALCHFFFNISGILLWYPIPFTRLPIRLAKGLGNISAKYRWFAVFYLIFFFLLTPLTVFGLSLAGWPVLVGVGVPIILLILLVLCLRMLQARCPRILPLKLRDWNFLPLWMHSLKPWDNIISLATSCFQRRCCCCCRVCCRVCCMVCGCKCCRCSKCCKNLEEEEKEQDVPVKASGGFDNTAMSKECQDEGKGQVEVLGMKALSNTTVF
In words: Inhibition of NaP2b-mediated Pi (33P) uptake in transfected HEK293 cells, rat NaP2b. In kind it is cell-based. Particulars: 33P Pi uptake, 0.1 mM phosphate, value given as pIC50 range. In short, it runs like this:
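The cells transiently expressed NaP2b after Lipofectamine transfection. Each compound was run in duplicate over twelve concentrations, 0.1 nM–30 uM.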
In the case of `COCCNC(=O)N1CCN(CCN(C)Cc2cccc(C(=O)Nc3ccc(N4CCCCC4)cc3-c3cc(C(=O)NCc4cccc(C(F)(F)F)c4)ccn3)n2)CC1` [Example 63, N-(2-Methoxyethyl)-4-(2-(methyl((6-((4-(piperidin-1-yl)-2-(4-((3-(trifluoromethyl)benzyl)carbamoyl)pyridin-2-yl)phenyl)carbamoyl)pyridin-2-yl)methyl)amino)ethyl)piperazine-1-carboxamide], the negative-log IC50 (pIC50) was 5.10 to 6.00.

The compound `CCCN(CCC)c1ccc(NC(=O)c2cccc(C(=O)N(C)CCN3CCOCC3)c2)c(-c2cc(C(=O)NCc3cccc(C(F)(F)F)c3)ccn2)c1` [Example 116] showed a pIC50 of 5.10 to 6.00.

As for `COC[C@@H]1CCCN1c1ccc(NC(=O)c2cccc(C(=O)N(C)CCN3CCOCC3)c2)c(-c2cc(C(=O)NCc3cccc(C(F)(F)F)c3)ccn2)c1` [Example 102], the pIC50 is 4.50 to 5.00.

Turning to `CN(Cc1ncc[nH]1)C(=O)c1cccc(C(=O)Nc2ccc(N3CCCCC3)cc2-c2cc(C(=O)NCc3cccc(C(F)(F)F)c3)ccn2)c1` [Example 4.24], the negative-log IC50 (pIC50) is 5.10 to 6.00.

The compound `O=C(NCc1cccc(C(F)(F)F)c1)c1ccnc(-c2cc(N3CCCCC3)ccc2NC(=O)c2cccc(CSCCOCCOCCOCCOCCC(=O)N3CCC(N4CCOCC4)CC3)c2)c1` [Example 154, 2-(2-(3-(17-(4-morpholinopiperidin-1-yl)-17-oxo-5,8,11,14-tetraoxa-2-thiaheptadecyl)benzamido)-5-(piperidin-1-yl)phenyl)-N-(3-(trifluoromethyl)benzyl)isonicotinamide] gave a negative logarithm of the IC50 (pIC50) of 4.50 to 5.00.

Compound `CCN(CC)c1ccc(NC(=O)c2cccc(CCCOCCOCCOCCOCCNS(=O)(=O)c3ccc(C(=O)N(C)CCOCCOCCOCCOCCOCCOCCOC)cc3)c2)c(-c2cc(C(=O)NCc3cccc(C(F)(F)F)c3)ccn2)c1` [Example 287, 2-(2-(3-(1-(4-(2,5,8,11,14,17,20-heptaoxadocosan-22-yl(methyl)carbamoyl)phenylsulfonamido)-3,6,9,12-tetraoxapentadecan-15-yl)benzamido)-5-(diethylamino)phenyl)-N-(3-(trifluoromethyl)benzyl)isonicotinamide] gave a pIC50 of 5.10 to 6.00.

With `CN(CCN1CCC[C@H]1C(=O)N(C)CCOCCOCCOCCC(=O)OC(C)(C)C)C(=O)c1cccc(C(=O)Nc2ccc(N3CCCCC3)cc2-c2cc(C(=O)N[C@H]3CCCc4ccccc43)ccn2)c1` [Example 190, tert-Butyl 2-methyl-1-((S)-1-(2-(N-methyl-3-((4-(piperidin-1-yl)-2-(4-(((S)-1,2,3,4-tetrahydronaphthalen-1-yl)carbamoyl)pyridin-2-yl)phenyl)carbamoyl)benzamido)ethyl)pyrrolidin-2-yl)-1-oxo-5,8,11-trioxa-2-azatetradecan-14-oate], the pIC50 is 5.10 to 6.00.

`CN(CCOCCOCCOCCC(=O)O)Cc1cccc(C(=O)Nc2ccc(N3CCCCC3)cc2-c2cc(C(=O)NCc3cccc(C(F)(F)F)c3)ccn2)n1` [Example 54, 2-Methyl-1-(6-((4-(piperidin-1-yl)-2-(4-((3-(trifluoromethyl)benzyl)carbamoyl)pyridin-2-yl)phenyl)carbamoyl)pyridin-2-yl)-5,8,11-trioxa-2-azatetradecan-14-oic acid] showed a pIC50 of 4.50 to 5.00.

Consider `CCN(CC)c1ccc(NC(=O)c2cccc(CCCOCCOCCOCCOCCNS(=O)(=O)c3ccc(CCC(=O)NCCOCCOCCOCCOCCOCCOCCOC)cc3)c2)c(-c2cc(C(=O)NCc3cccc(C(F)(F)F)c3)ccn2)c1` [Example 296, 2-(5-(diethylamino)-2-(3-(1-(4-(24-oxo-2,5,8,11,14,17,20-heptaoxa-23-azahexacosan-26-yl)phenylsulfonamido)-3,6,9,12-tetraoxapentadecan-15-yl)benzamido)phenyl)-N-(3-(trifluoromethyl)benzyl)isonicotinamide], for which the pIC50 is 5.10 to 6.00.

For `C[C@@H]1CN(c2ccc(NC(=O)c3cccc(C(=O)N(C)CCN4CCOCC4)c3)c(-c3cc(C(=O)NCc4cccc(C(F)(F)F)c4)ccn3)c2)C[C@H](C)O1` [Example 95], the pIC50 was 4.50 to 5.00.

On to `CCN(CC)c1ccc(NC(=O)c2cccc(C(=O)N(C)CCN(C)CCOCCOCCOCCNC(=O)c3cscn3)c2)c(-c2cc(C(=O)N[C@H]3CCCc4ccccc43)ccn2)c1` [Example 344, (S)—N-(4-(Diethylamino)-2-(4-(1,2,3,4-tetrahydronaphthalen-1-ylcarbamoyl)pyridin-2-yl)phenyl)-N^3-methyl-N^3-(14-methyl-1-oxo-1-(thiazol-4-yl)-5,8,11-trioxa-2,14-diazahexadecan-16-yl)isophthalamide], for which the pIC50 is more than 6.00.

For `Cc1ccc(Cl)cc1CNC(=O)c1ccnc(-c2cc(N3CCCCC3)ccc2NC(=O)c2cccc(CSCCC(=O)O)c2)c1` [Example 1.17], the pIC50 was 5.10 to 6.00.

`CN(Cc1cccc(C(F)(F)F)c1)C(=O)c1ccnc(-c2cc(N3CCCCC3)ccc2NC(=O)c2cccc(CSCCC(=O)O)c2)c1` [Example 1.37]: the negative logarithm of the IC50 (pIC50) is 5.10 to 6.00.

In turn, `CN(CCn1ccnc1)C(=O)c1cccc(C(=O)Nc2ccc(N3CCCCC3)cc2-c2cc(C(=O)NCc3cccc(C(F)(F)F)c3)ccn2)c1` [Example 4.28] gave a negative logarithm of the IC50 (pIC50) of 5.10 to 6.00.

`CN1CCC(NC(=O)c2cccc(SCc3cccc(C(=O)Nc4ccc(N5CCCCC5)cc4-c4cc(C(=O)NCc5cccc(C(F)(F)F)c5)ccn4)c3)c2)CC1` [Example 10.4] had a pIC50 of 4.50 to 5.00.

`O=C(O)CCSCc1cccc(C(=O)Nc2ccc(N3CCCCC3)cc2-c2cc(C(F)(F)c3cccc(C(F)(F)F)c3)ccn2)c1` [Example 93] gave a pIC50 of 4.50 to 5.00.

With `CC(=O)N[C@@H]1CCN(Cc2cccc(C(=O)Nc3ccc(N4CCCCC4)cc3-c3cc(C(=O)NCc4cccc(C(F)(F)F)c4)ccn3)n2)C1` [Example 55, (R)-6-((3-Acetamidopyrrolidin-1-yl)methyl)-N-(4-(piperidin-1-yl)-2-(4-((3-(trifluoromethyl)benzyl)carbamoyl)pyridin-2-yl)phenyl)picolinamide 2,2,2-trifluoroacetate], the pIC50 is 5.10 to 6.00.

On to `CCN(CC)c1ccc(NC(=O)c2cccc(CCCOCCOCCOCCOCCC(=O)N3CCN(CCOCCOCCOCCOCCOCCOCCOC)C(=O)C3)c2)c(-c2cc(C(=O)NCc3cccc(C(F)(F)F)c3)ccn2)c1` [Example 258, 2-(2-(3-(16-(4-(2,5,8,11,14,17,20-heptaoxadocosan-22-yl)-3-oxopiperazin-1-yl)-16-oxo-4,7,10,13-tetraoxahexadecyl)benzamido)-5-(diethylamino)phenyl)-N-(3-(trifluoromethyl)benzyl)isonicotinamide], for which the negative-log IC50 (pIC50) was 5.10 to 6.00.

For `CC(C)CNC(=O)c1ccnc(-c2cc(N3CCCCC3)ccc2NC(=O)c2cccc(CSCCC(=O)O)c2)c1` [Example 1.8], the pIC50 was 4.50 to 5.00.

For the compound `CC(=O)NC1CCN(Cc2cccc(C(=O)Nc3ccc(N4CCCCC4)cc3-c3cc(C(=O)NCc4cccc(C(F)(F)F)c4)ccn3)n2)CC1` [Example 57, 6-((4-Acetamidopiperidin-1-yl)methyl)-N-(4-(piperidin-1-yl)-2-(4-((3-(trifluoromethyl)benzyl)carbamoyl)pyridin-2-yl)phenyl)picolinamide], the pIC50 was 4.50 to 5.00.

`O=C(O)CCSCc1cccc(C(=O)Nc2ccc(N3CCCCC3)cc2-c2cc(C(=O)NCc3cccc(N4CCCCC4)c3)ccn2)c1` [Example 1.15] gave a negative logarithm of the IC50 (pIC50) of 5.10 to 6.00.

With `CCN(CC)c1ccc(NC(=O)c2cccc(CCCOCCOCCOCCOCCNS(=O)(=O)c3ccc(CCC(=O)N(CCOC)CCOCCOCCOCCOCCOCCOCCOC)cc3)c2)c(-c2cc(C(=O)NCc3cccc(C(F)(F)F)c3)ccn2)c1` [Example 295, 2-(5-(diethylamino)-2-(3-(1-(4-(23-(2-methoxyethyl)-24-oxo-2,5,8,11,14,17,20-heptaoxa-23-azahexacosan-26-yl)phenylsulfonamido)-3,6,9,12-tetraoxapentadecan-15-yl)benzamido)phenyl)-N-(3-(trifluoromethyl)benzyl)isonicotinamide], the pIC50 was 5.10 to 6.00.

Regarding `CCN(CC)c1ccc(NC(=O)c2cccc(CCCOCCOCCOCCOCCN)c2)c(-c2cc(C(=O)NCc3cccc(C(F)(F)F)c3)ccn2)c1` [Example 270, 2-(2-(3-(1-amino-3,6,9,12-tetraoxapentadecan-15-yl)benzamido)-5-(diethylamino)phenyl)-N-(3-(trifluoromethyl)benzyl)isonicotinamide], the pIC50 was 5.10 to 6.00.

As for `CC(=O)N1CCN(Cc2cccc(C(=O)Nc3ccc(N4CCCCC4)cc3-c3cc(C(=O)NCc4cccc(C(F)(F)F)c4)ccn3)n2)CC1` [Example 58, 6-((4-Acetylpiperazin-1-yl)methyl)-N-(4-(piperidin-1-yl)-2-(4-((3-(trifluoromethyl)benzyl)carbamoyl)pyridin-2-yl)phenyl)picolinamide], the negative-log IC50 (pIC50) was 5.10 to 6.00.

In turn, `CCCN(CC)c1ccc(NC(=O)c2cccc(C(=O)N(C)CCN3CCOCC3)c2)c(-c2cc(C(=O)NCc3cccc(C(F)(F)F)c3)ccn2)c1` [Example 128, N1-(2-(4-((3-(trifluoromethyl)benzyl)carbamoyl)pyridin-2-yl)-4-(ethyl(propyl)amino)phenyl)-N3-methyl-N3-(2-morpholinoethyl)isophthalamide] gave a pIC50 of 5.10 to 6.00.
